Test results taken from patent US10219516B2, “Molecules having pesticidal utility, and intermediates, compositions, and processes, related thereto” (priority 2015, dated 2019).
Read-outs that look alike come from different tables or passages of the source.

Columns and labels:
Type in all cases: in vivo
[1] = tested on: Green Peach Aphid (Myzus persicae, MYZUPE); assay: Bioassay on Green Peach Aphid (GPA), foliar spray on infested cabbage seedlings; conditions: 72 h
Procedure, shortened: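 Cabbage seedlings (2-3 true leaves) infested with 20-50 wingless adult and nymph aphids one day before treatment; sprayed to runoff at 200 ppm in 0.025% Tween 20 water with 20% acetone/methanol, four pots per treatment. Held three days at about 25° C; live aphids counted, % control by Abbott's correction versus solvent check.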

[2] = tested on: Beet Armyworm (Spodoptera exigua, LAPHEG); assay: Bioassay on Beet Armyworm (BAW), 128-well diet tray assay
Procedure, shortened: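 In a 128-well format, eight wells per compound received a surface dose of 50 μg/cm^2 on artificial diet. After drying, each well got one to five second instar larvae, held at 25° C. with 14:10 photoperiod. Mortality percentages after five to seven days were averaged.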

[3] = tested on: Yellow Fever Mosquito (Aedes aegypti, AEDSAE); assay: Bioassay on Yellow Fever Mosquito (YFM), 96-well plate larval assay; conditions: for YFM (Biological Results, rating): Species YFM (Yellow Fever Mosquito); for YFM rating: Yellow Fever Mosquito, 96-well plate larval assay
Procedure, shortened: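 Each well was scored for mortality after 3 days at room temperature under a non-evaporative lid. Test molecules came from DMSO masters (4000 ppm stock) diluted with water/acetone 90:10 and dispensed into six replicate plates, which were then infested with roughly 1-day-old larvae in liver-powder water.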

[4] = tested on: Cabbage Looper (Trichoplusia ni, TRIPNI); assay: Bioassay on Cabbage Looper (CL), 128-well diet tray assay; conditions: Trichoplusia ni
Procedure, shortened: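 Second-instar larvae, one to five per well, placed on artificial diet treated with 50 μg/cm^2 test molecule in 90:10 acetone-water, dried before infestation. Held 5–7 days at 25° C, 14:10 light-dark; percent mortality averaged over eight wells.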

[5] = foliar, Species GPA (Green Peach Aphid), read-out: GPA (Biological Results, rating)
[6] = Species BAW (Beet Armyworm), read-out: BAW (Biological Results, rating)
[7] = Species CL (Cabbage Looper), read-out: CL (Biological Results, rating)
[8] = Green Peach Aphid, foliar spray on cabbage seedlings, read-out: GPA rating
[9] = Beet Armyworm, 128-well diet tray assay, read-out: BAW rating
[10] = Cabbage Looper, 128-well diet tray assay, read-out: CL rating

CN(C(=O)c1cc(NC(=O)[C@H]2[C@H](c3cc(Cl)c(Cl)c(Cl)c3)C2(Cl)Cl)ccc1Cl)c1ccc(F)cc1 (relative stereo) [F52, trans-2-Chloro-5-(2,2-dichloro-3-(3,4,5-trichlorophenyl)cyclopropane-1-carboxamido)-N-(4-fluorophenyl)-N-methylbenzamide]
pest or weed control at 200 µg/mL [1, 5]: 80 to 100%
pest or weed control at 50 µg/cm2 [2, 6]: 50 to 100%
YFM (Biological Results, rating) [3]: A (80-100)
pest or weed control at 50 µg/cm2 [4, 7]: 50 to 100%

CN(C(=O)c1cc(NC(=O)[C@H]2[C@H](c3ccc(OC(F)(F)F)c(Cl)c3)C2(Cl)Cl)ccc1Cl)c1ccc(F)cc1 (relative stereo) [F80, trans-2-Chloro-5-(2,2-dichloro-3-(3-chloro-4-(trifluoromethoxy)phenyl)cyclopropane-1-carboxamido)-N-(4-fluorophenyl)-N-methylbenzamide]
pest or weed control at 200 µg/mL [1, 5]: 80 to 100%
pest or weed control at 50 µg/cm2 [2, 6]: 50 to 100%
YFM (Biological Results, rating) [3]: A (80-100)
pest or weed control at 50 µg/cm2 [4, 7]: 50 to 100%

O=C(Nc1ccc[n+]([O-])c1)c1cc(NC(=O)[C@H]2[C@H](c3cc(Cl)cc(Cl)c3)C2(Cl)Cl)ccc1Cl (relative stereo) [F139, trans-3-(2-chloro-5-(2,2-dichloro-3-(3,5-dichlorophenyl)cyclopropane-1-carboxamido)benzamido)pyridine 1-oxide]
pest or weed control at 200 µg/mL [1, 5]: 0 to 80%
pest or weed control at 50 µg/cm2 [2, 6]: 50 to 100%
YFM (Biological Results, rating) [3]: A (80-100)
pest or weed control at 50 µg/cm2 [4, 7]: 50 to 100%

O=C(Nc1ccc(F)cc1)c1cc(NC(=O)[C@H]2[C@H](c3cc(Cl)c(Cl)c(Cl)c3)C2(Cl)Cl)ccc1F (relative stereo) [F29, trans-5-(2,2-Dichloro-3-(3,4,5-trichlorophenyl)cyclopropane-1-carboxamido)-2-fluoro-N-(4-fluorophenyl)benzamide]
pest or weed control at 200 µg/mL [1, 5]: 0 to 80%
pest or weed control at 50 µg/cm2 [2, 6]: 50 to 100%
YFM (Biological Results, rating) [3]: A (80-100)
pest or weed control at 50 µg/cm2 [4, 7]: 50 to 100%

CN(C(=O)c1cc(NC(=O)[C@H]2[C@H](c3cc(Cl)cc(Cl)c3)C2(Cl)Cl)ccc1Cl)c1ccccc1F (relative stereo) [F35, trans-2-Chloro-5-(2,2-dichloro-3-(3,5-dichlorophenyl)cyclopropane-1-carboxamido)-N-(2-fluorophenyl)-N-methylbenzamide]
pest or weed control at 200 µg/mL [1, 5]: 80 to 100%
pest or weed control at 50 µg/cm2 [2, 6]: 50 to 100%
YFM (Biological Results, rating) [3]: A (80-100)
pest or weed control at 50 µg/cm2 [4, 7]: 50 to 100%

CN(C(=O)c1cc(NC(=O)[C@H]2[C@H](c3cc(Cl)cc(Br)c3)C2(Cl)Cl)ccc1Cl)c1ccc(F)cc1 (relative stereo) [PF38, trans-5-(3-(3-Bromo-5-chlorophenyl)-2,2-dichlorocyclopropane-1-carboxamido)-2-chloro-N-(4-fluorophenyl)-N-methylbenzamide]
pest or weed control at 200 µg/mL [1, 8]: 80 to 100%
pest or weed control at 50 µg/cm2 [2, 9]: 50 to 100%
YFM rating [3]: A (80-100)
pest or weed control at 50 µg/cm2 [4, 10]: 50 to 100%

O=C(Nc1ccc(F)cc1F)c1cc(NC(=O)[C@H]2[C@H](c3cc(Cl)c(Cl)c(Cl)c3)C2(Cl)Cl)ccc1Cl (relative stereo) [F40, trans-2-Chloro-5-(2,2-dichloro-3-(3,4,5-trichlorophenyl)cyclopropane-1-carboxamido)-N-(2,4-difluorophenyl)benzamide]
pest or weed control at 200 µg/mL [1, 5]: 80 to 100%
pest or weed control at 50 µg/cm2 [2, 6]: 50 to 100%
YFM (Biological Results, rating) [3]: B (More than 0-Less than 80)
pest or weed control at 50 µg/cm2 [4, 7]: 50 to 100%

CN(C(=O)c1cc(NC(=O)[C@H]2[C@H](c3ccc(Cl)c(Cl)c3)C2(Cl)Cl)ccc1F)c1ccc(F)cc1F (relative stereo) [F64, trans-5-(2,2-Dichloro-3-(3,4-dichlorophenyl)cyclopropane-1-carboxamido)-N-(2,4-difluorophenyl)-2-fluoro-N-methylbenzamide]
pest or weed control at 200 µg/mL [1, 5]: 80 to 100%
pest or weed control at 50 µg/cm2 [2, 6]: 50 to 100%
YFM (Biological Results, rating) [3]: B (More than 0-Less than 80)
pest or weed control at 50 µg/cm2 [4, 7]: 50 to 100%

C#CCN(C(=O)c1cc(NC(=O)[C@H]2[C@H](c3ccc(F)c(Cl)c3)C2(Cl)Cl)ccc1Cl)c1ccc(F)cc1F [F414, 2-Chloro-5-((1R,3R)-2,2-dichloro-3-(3-chloro-4-fluorophenyl)cyclopropane-1-carboxamido)-N-(2,4-difluorophenyl)-N-(prop-2-yn-1-yl)benzamide]
pest or weed control at 200 µg/mL [1, 8]: 80 to 100%
pest or weed control at 50 µg/cm2 [2, 9]: 50 to 100%
YFM rating [3]: A (80-100)
pest or weed control at 50 µg/cm2 [4, 10]: 50 to 100%

O=C(Nc1cccnc1F)c1cc(NC(=O)[C@H]2[C@H](c3cc(Cl)cc(Cl)c3)C2(Cl)Cl)ccc1Cl (relative stereo) [F156, trans-2-Chloro-5-(2,2-dichloro-3-(3,5-dichlorophenyl)cyclopropane-1-carboxamido)-N-(2-fluoropyridin-3-yl)benzamide]
pest or weed control at 200 µg/mL [1, 5]: 80 to 100%
pest or weed control at 50 µg/cm2 [2, 6]: 50 to 100%
YFM (Biological Results, rating) [3]: B (More than 0-Less than 80)
pest or weed control at 50 µg/cm2 [4, 7]: 50 to 100%

O=C(Nc1ccc(F)cc1F)c1cc(NC(=O)[C@H]2[C@H](c3ccc(F)c(Cl)c3)C2(Cl)Cl)ccc1Cl [F533]
pest or weed control at 200 µg/mL [1, 8]: 80 to 100%
pest or weed control at 50 µg/cm2 [2, 9]: 50 to 100%
YFM rating [3]: A (80-100)
pest or weed control at 50 µg/cm2 [4, 10]: 50 to 100%

O=C(Nc1ccc(F)c(F)c1)c1cc(NC(=O)[C@H]2[C@H](c3cc(Cl)cc(Cl)c3)C2(Cl)Cl)ccc1Cl (relative stereo) [F23, trans-2-Chloro-5-(2,2-dichloro-3-(3,5-dichlorophenyl)cyclopropane-1-carboxamido)-N-(3,4-difluorophenyl)benzamide]
pest or weed control at 200 µg/mL [1, 5]: 0 to 80%
pest or weed control at 50 µg/cm2 [2, 6]: 50 to 100%
YFM (Biological Results, rating) [3]: A (80-100)
pest or weed control at 50 µg/cm2 [4, 7]: 50 to 100%

O=C(Nc1cccc(C(F)(F)F)c1)c1cc(NC(=O)[C@H]2[C@H](c3cc(Cl)cc(Cl)c3)C2(Cl)Cl)ccc1Cl (relative stereo) [PF71, trans-2-Chloro-5-(2,2-dichloro-3-(3,5-dichlorophenyl)cyclopropane-1-carboxamido)-N-(3-(trifluoromethyl)phenyl)benzamide]
pest or weed control at 200 µg/mL [1, 8]: 0 to 80%
pest or weed control at 50 µg/cm2 [2, 9]: 50 to 100%
YFM rating [3]: A (80-100)
pest or weed control at 50 µg/cm2 [4, 10]: 50 to 100%

O=C(Nc1cccc(F)c1F)c1cc(NC(=O)[C@H]2[C@H](c3cc(Cl)cc(Cl)c3)C2(Cl)Cl)ccc1Cl (relative stereo) [F22, trans-2-Chloro-5-(2,2-dichloro-3-(3,5-dichlorophenyl)cyclopropane-1-carboxamido)-N-(2,3-difluorophenyl)benzamide]
pest or weed control at 200 µg/mL [1, 5]: 80 to 100%
pest or weed control at 50 µg/cm2 [2, 6]: 50 to 100%
YFM (Biological Results, rating) [3]: A (80-100)
pest or weed control at 50 µg/cm2 [4, 7]: 50 to 100%

CN(C(=O)c1cc(NC(=O)[C@H]2[C@H](c3ccc(Cl)c(F)c3)C2(Cl)Cl)ccc1Cl)c1ccc(F)cc1 (relative stereo) [PF35, trans-2-Chloro-5-(2,2-dichloro-3-(4-chloro-3-fluorophenyl)cyclopropane-1-carboxamido)-N-(4-fluorophenyl)-N-methylbenzamide]
pest or weed control at 200 µg/mL [1, 8]: 80 to 100%
pest or weed control at 50 µg/cm2 [2, 9]: 50 to 100%
YFM rating [3]: A (80-100)
pest or weed control at 50 µg/cm2 [4, 10]: 50 to 100%
